This data set is described as follows: Stability test of the crystalline form (sealed glass vial, HPLC). The class given is physicochemical. The method, then:
The crystalline form of the compound (IV) monohydrate was sealed in a glass vial and allowed it to stand for 20 days to determine the quality change before and after the test. Under heating at 50° C. (for 21 hr) or 80° C. (for 9 hr) were also conducted.
The quality degradation was not seen for the crystalline form of the compound (IV) monohydrate after 20 days and neither at 50° C. nor 80° C.
HPLC condition: Column Unison UK-C18 3 μm;
Mobile phase: 0.1% trifuluoroacetic acid aq. in acetnitrile;
Column temperature: 30° C.
Detector: UV spectrophotometer (254 nm)

Consider `CC#CC(=O)c1ccc2ncnc(Nc3ccc(OCc4cccc(F)c4)c(Cl)c3)c2c1` [compound (IV) monohydrate, 4-(3-chloro-4-(3-fluorobenzyloxy)phenylamino)-6-(1-oxo-2-butyn-1-yl)quinazoline], for which the “remaining ratio (HPLC, peak at Retention Time 10.2 min)” value is, setting by setting: (ca. 50° C., 15 h) 99.2; (ca. 50° C., 21 h) 99.1; (ca. 50° C., Control (before the test)) 99.4; (ca. 80° C., 3 h) 99.1; (ca. 80° C., 9 h) 99.1; (ca. 80° C., Control (before the test)) 99.1. The “remaining ratio (HPLC, peak at Retention Time 10.2 min)” value reads like this: (rt (ca. 22° C.), sealed in a glass vial, 20 days) 99.3; (rt (ca. 22° C.), sealed in a glass vial, Control (before the test)) 99.1. Further, the quality degradation entry is “not seen” (heating at 50° C. (for 21 hr)); “not seen” (heating at 80° C. (for 9 hr)); “not seen” (sealed in a glass vial, after 20 days).

For the origin of these results see patent US8426589B2, “Process for production of quinazoline derivative” (Shionogi & Co., Ltd., priority 2008, dated 2013).
